The text below walks through data of US6737383B1, “Herbicidal oxadiazolidines” (priority 1999, dated 2004).

The test system of one assay is wheat. Put plainly: Test B pre/postemergence wheat. Type of assay: in vivo, Triticum aestivum. In short, it runs like this: (§1)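 Response is a visual 0-to-10 score relative to untreated plants, where 0 means no effect and 10 means complete control, taken twelve to sixteen days after application. Treatments went onto soil at planting and onto foliage of 1- to 4-leaf plants, using a surfactant-containing non-phytotoxic solvent.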

In the next assay the test system is bamyardgrass. Put plainly: Test B flood test barnyardgrass. In kind it is in vivo, Echinochloa crus-galli. The conditions noted are these: for Barnyardgrass plant response rating (0 to 10 scale, 0 is no effect, 10 is complete control): under heading Pre-emergence; for Barnyardgrass plant response rating (0 to 10 scale, 0 is no effect, 10 is complete control) / Plant response rating, Barnyardgrass (0 to 10 scale, 0 is no effect, 10 is complete control): visual evaluation after twelve to sixteen days. Put shortly: (§2)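 Read-out is a visual response score from 0 (no effect) to 10 (complete control), assigned by comparison with untreated controls. Treatment was applied at the 2-leaf stage, and plants stayed in the greenhouse for twelve to sixteen days before scoring.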

Another assay has as its system bedstraw. Put plainly: Test B pre/postemergence bedstraw. Type of assay: in vivo, Galium aparine. In short, it runs like this: as §1
The next assay has as its system smallflower flatsedge. The assay can be described thus: Test B flood test smallflower flatsedge. Type of assay: in vivo, Cyperus difformis. The conditions noted are these: for S. Flatsedge plant response rating (0 to 10 scale, 0 is no effect, 10 is complete control): under heading Pre-emergence; for S. Flatsedge plant response rating (0 to 10 scale, 0 is no effect, 10 is complete control) / Plant response rating, S. Flatsedge (0 to 10 scale, 0 is no effect, 10 is complete control): visual evaluation after twelve to sixteen days. In short, it runs like this: as §2

[1] abbreviates: Postemergence, Rate 125 g/ha, scale of 0 to 10 where 0 is no effect and 10 is complete control.
[2] abbreviates: Postemergence, Rate 500 g/ha, scale of 0 to 10 where 0 is no effect and 10 is complete control.
The mark [3] stands for this setting: Preemergence, Rate 125 g/ha, scale of 0 to 10 where 0 is no effect and 10 is complete control.
[4] abbreviates: Preemergence, Rate 500 g/ha, scale of 0 to 10 where 0 is no effect and 10 is complete control.
Setting [5] is: Rate 1000 g/ha, Preemergence, scale 0 to 10 (0 no effect, 10 complete control).
[6] abbreviates: Pre-emergence, Rate 1000 g/ha, scale 0 to 10 (0 no effect, 10 complete control).
The mark [7] stands for this setting: Rate 125 g/ha, flood test species.
[8] abbreviates: Rate 250 g/ha, Pre-emergence (flood test species), scale 0 to 10, 0 is no effect, 10 is complete control.
[9] abbreviates: Rate 500 g/ha, Pre-emergence section of Table B, 0 to 10 scale (0 no effect, 10 complete control).
Setting [10] is: Preemergence, Rate 62 g/ha, scale of 0 to 10 where 0 is no effect and 10 is complete control.
[11] abbreviates: Preemergence, Rate 250 g/ha, scale of 0 to 10 where 0 is no effect and 10 is complete control.
Setting [12] is: Rate 62 g/ha, Postemergence, scale 0 to 10 (0 no effect, 10 complete control).
[13] abbreviates: Rate 125 g/ha, Postemergence, scale of 0 to 10 where 0 is no effect and 10 is complete control.
Where [14] appears, read: Rate 250 g/ha, Postemergence, scale of 0 to 10 where 0 is no effect and 10 is complete control.
Setting [15] is: Rate 62 g/ha, headed Pre-emergence (flood test species), scale 0 to 10 (0 no effect, 10 complete control).
Setting [16] is: Rate 125 g/ha, Pre-emergence, flood test species, scale 0 to 10 where 0 is no effect and 10 is complete control.
Where [17] appears, read: Rate 250 g/ha, Pre-emergence, flood-test species, scale 0 to 10, 0 is no effect, 10 is complete control.
Where [18] appears, read: Rate 500 g/ha, Pre-emergence, flood test species, scale 0 to 10 (0 no effect, 10 complete control).
[19] abbreviates: Rate 500 g/ha, Postemergence, scale 0 to 10, 0 no effect, 10 complete control.
The mark [20] stands for this setting: Preemergence, Rate 62 g/ha, scale 0 to 10 (0 no effect, 10 complete control).
Where [21] appears, read: Postemergence section (flood test species), Rate 500 g/ha, scale of 0 to 10 where 0 is no effect and 10 is complete control.
[22] abbreviates: Rate 125 g/ha, Postemergence section (flood test species), scale 0 to 10, 0 is no effect, 10 is complete control.
Setting [23] is: flood test species, listed under Postemergence, Rate 250 g/ha, scale 0 to 10, 0 is no effect, 10 is complete control.
The mark [24] stands for this setting: Rate 62 g/ha, flood test species, Pre-emergence.
The mark [25] stands for this setting: Postemergence, Rate 125 g/ha, scale 0 to 10, 0 is no effect, 10 is complete control.
Where [26] appears, read: Postemergence, Rate 250 g/ha, scale 0 to 10, 0 is no effect, 10 is complete control.
The mark [27] stands for this setting: Rate 62 g/ha, Postemergence, scale of 0 to 10 where 0 is no effect and 10 is complete control.

Consider `CCOP(=O)(Cn1c(=O)on(C(=O)N(c2ccc(Cl)cc2)C(C)C)c1=O)OCC` [Compound 599], for which the “Plant response rating, Wheat” value in the assay on wheat (setting [1]), with wheat (setting [2]), in the assay with wheat (setting [4]) and in the assay with wheat (setting [5]) was 0 in each case. The “Wheat plant response rating” value with wheat (Postemergence, Rate 250 g/ha, scale of 0 to 10, 0 is no effect, 10 is complete control) was determined as 0; with wheat (Postemergence, Rate 1000 g/ha, scale 0 to 10 (0 no effect, 10 complete control)), 0; with wheat (setting [3]), 0. Moreover, the “Barnyardgrass plant response rating” value with bamyardgrass (setting [6]), in the assay with bamyardgrass (setting [8]) and in the assay on bamyardgrass (setting [9]) was 0 each time. Further, the “Barnyardgrass plant response rating (0 to 10 scale, 0 is no effect, 10 is complete control)” value in the assay on bamyardgrass (setting [7]) turned out to be 0. Besides, the “Bedstraw plant response rating” value with bedstraw (setting [3]) and in the assay on bedstraw (setting [4]) was 0 in each case. In the assay on bedstraw (Preemergence, Rate 250 g/ha), the “Bedstraw plant response rating (0 to 10 scale)” value is recorded as 0. Besides, in the assay on bedstraw (setting [5]), the “Plant response rating, Bedstraw” value stood at 8. Moreover, the “S. Flatsedge plant response rating” value with smallflower flatsedge (setting [6]), in the assay with smallflower flatsedge (setting [8]) and in the assay on smallflower flatsedge (setting [9]) was 0 in each case. For the same molecule, the “S. Flatsedge plant response rating (0 to 10 scale, 0 is no effect, 10 is complete control)” value in the assay with smallflower flatsedge (setting [7]) is on record as 0.
In the case of `Cc1ccccc1-n1c(=O)on(C(=O)N(c2ccc(OC(F)(F)F)cc2)C(C)C)c1=O` [Compound 300], the “Wheat plant response rating” value in the assay with wheat (setting [10]) is listed as 0; with wheat (setting [11]), 0; in the assay with wheat (setting [4]), 2; with wheat (setting [12]), 0; with wheat (setting [13]), 0. Moreover, the “Wheat plant response rating (0 to 10 scale)” value in the assay on wheat (Preemergence, Rate 125 g/ha) was found to be 0. Also, the “Plant response rating, Wheat” value with wheat (setting [14]) is recorded as 0. Moreover, the “Barnyardgrass plant response rating” value in the assay with bamyardgrass (setting [15]), in the assay with bamyardgrass (setting [16]), with bamyardgrass (setting [17]) and in the assay with bamyardgrass (setting [18]) was 0 each time. Moreover, the “Bedstraw plant response rating” value in the assay on bedstraw (setting [11]) stood at 0; with bedstraw (setting [4]) it was 8; with bedstraw (setting [12]), 0; in the assay on bedstraw (setting [13]) it was 0; in the assay on bedstraw (setting [19]), 0. Besides, the “Plant response rating, Bedstraw” value in the assay with bedstraw (setting [14]) amounted to 0. For the same molecule, the “S. Flatsedge plant response rating” value in the assay with smallflower flatsedge (setting [15]), with smallflower flatsedge (setting [16]), with smallflower flatsedge (setting [17]) and with smallflower flatsedge (setting [18]) was 0 throughout.
Consider `CC(C)N(C(=O)n1oc(=O)n(CCl)c1=O)c1ccccc1` [Compound 423], for which the “Wheat plant response rating” value in the assay on wheat (setting [2]) was determined as 0; with wheat (Preemergence, Rate 250 g/ha, scale 0 to 10, 0 is no effect, 10 is complete control), 0; with wheat (Preemergence, Rate 500 g/ha, scale 0 to 10, 0 is no effect, 10 is complete control), 0; in the assay on wheat (Rate 125 g/ha, Postemergence, scale 0 to 10, 0 is no effect, 10 is complete control), 0. Also, the “Plant response rating, Wheat” value in the assay on wheat (setting [20]) and in the assay with wheat (setting [3]) was 0 in each case. Moreover, the “Barnyardgrass plant response rating” value with bamyardgrass (setting [21]) came to 0; in the assay with bamyardgrass (Rate 62 g/ha, Postemergence (flood test species), scale of 0 to 10 where 0 is no effect and 10 is complete control), 0; in the assay on bamyardgrass (setting [22]), 0. In addition, the “Plant response rating, Barnyardgrass” value with bamyardgrass (setting [23]) amounted to 0. Further, the “S. Flatsedge plant response rating” value with smallflower flatsedge (setting [21]) and in the assay with smallflower flatsedge (setting [22]) was 0 in each case. Further, in the assay on smallflower flatsedge (setting [23]), the “Plant response rating, S. Flatsedge” value was found to be 0.
As to `CC(C)N(C(=O)n1oc(=O)n(C(C)C)c1=O)c1ccncc1` [Compound 663], the “Plant response rating, Wheat” value amounted to 0 with wheat (Postemergence, Rate 62 g/ha, scale 0 to 10, 0 is no effect, 10 is complete control); 0 in the assay with wheat (Preemergence, Rate 250 g/ha, scale 0 to 10 (0 no effect, 10 complete control)); 3 with wheat (setting [4]). Further, the “Wheat plant response rating” value was determined as 0 with wheat (setting [1]); 0 in the assay on wheat (setting [10]); 0 in the assay on wheat (setting [3]); 0 in the assay on wheat (Rate 500 g/ha, Postemergence, scale 0 to 10, 0 is no effect, 10 is complete control). In addition, the “Plant response rating, Barnyardgrass (0 to 10 scale, 0 is no effect, 10 is complete control)” value in the assay on bamyardgrass (setting [24]) was determined as 0. The “Barnyardgrass plant response rating (0 to 10 scale, 0 is no effect, 10 is complete control)” value in the assay with bamyardgrass (setting [7]) stood at 0. The “Barnyardgrass plant response rating” value with bamyardgrass (setting [8]) and in the assay with bamyardgrass (setting [9]) was 0 each time. The “Plant response rating, S. Flatsedge (0 to 10 scale, 0 is no effect, 10 is complete control)” value in the assay on smallflower flatsedge (setting [24]) turned out to be 0. The “S. Flatsedge plant response rating (0 to 10 scale, 0 is no effect, 10 is complete control)” value in the assay on smallflower flatsedge (setting [7]) is recorded as 0. In addition, the “S. Flatsedge plant response rating” value with smallflower flatsedge (setting [8]) and in the assay with smallflower flatsedge (setting [9]) was 0 in each case.
Take `CC(C)N(C(=O)n1oc(=O)n(CCl)c1=O)c1ccc(F)cc1` [Compound 376]: the “Plant response rating, Wheat” value with wheat (setting [25]), with wheat (setting [26]), with wheat (setting [20]) and in the assay with wheat (setting [19]) was 0 each time. For the same molecule, in the assay with wheat (Preemergence, Rate 125 g/ha), the “Wheat plant response rating (0 to 10 scale)” value is 0. Besides, the “Wheat plant response rating” value with wheat (setting [11]), in the assay with wheat (setting [4]) and in the assay with wheat (setting [27]) was 0 in each case. The “Plant response rating, Barnyardgrass (0 to 10 scale, 0 is no effect, 10 is complete control)” value with bamyardgrass (setting [24]) came to 0. Also, in the assay with bamyardgrass (setting [7]), the “Barnyardgrass plant response rating (0 to 10 scale, 0 is no effect, 10 is complete control)” value is 0. Besides, the “Barnyardgrass plant response rating” value in the assay with bamyardgrass (setting [17]) and in the assay on bamyardgrass (setting [18]) was 0 each time. Moreover, the “Plant response rating, S. Flatsedge (0 to 10 scale, 0 is no effect, 10 is complete control)” value in the assay with smallflower flatsedge (setting [24]) is given as 0. In the assay on smallflower flatsedge (setting [7]), the “S. Flatsedge plant response rating (0 to 10 scale, 0 is no effect, 10 is complete control)” value was found to be 0. Also, the “S. Flatsedge plant response rating” value in the assay on smallflower flatsedge (setting [17]) and with smallflower flatsedge (setting [18]) was 0 in each case.
Regarding `Cc1nnsc1Cn1c(=O)on(C(=O)N(c2ccc(F)cc2)C(C)C)c1=O` [Compound 380], the “Plant response rating, Wheat” value in the assay on wheat (setting [25]), in the assay with wheat (setting [26]), in the assay on wheat (setting [20]) and in the assay with wheat (setting [19]) was 0 in each case. The “Wheat plant response rating (0 to 10 scale)” value in the assay with wheat (Preemergence, Rate 125 g/ha) is reported as 0. Moreover, the “Wheat plant response rating” value in the assay on wheat (setting [11]), in the assay on wheat (setting [4]) and in the assay with wheat (setting [27]) was 0 throughout. Further, the “Plant response rating, Barnyardgrass (0 to 10 scale, 0 is no effect, 10 is complete control)” value in the assay on bamyardgrass (setting [24]) amounted to 0. Besides, the “Barnyardgrass plant response rating (0 to 10 scale, 0 is no effect, 10 is complete control)” value in the assay with bamyardgrass (setting [7]) was found to be 0. Besides, the “Barnyardgrass plant response rating” value in the assay on bamyardgrass (setting [17]) and with bamyardgrass (setting [18]) was 0 in each case. Besides, the “Plant response rating, S. Flatsedge (0 to 10 scale, 0 is no effect, 10 is complete control)” value in the assay with smallflower flatsedge (setting [24]) is on record as 0. Besides, in the assay with smallflower flatsedge (setting [7]), the “S. Flatsedge plant response rating (0 to 10 scale, 0 is no effect, 10 is complete control)” value worked out at 0. Further, the “S. Flatsedge plant response rating” value in the assay on smallflower flatsedge (setting [17]) and in the assay on smallflower flatsedge (setting [18]) was 0 in each case.
